Assay results from ChEMBL document CHEMBL1201862, “PubChem BioAssay data set” (2004).
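Protocol summary: plate cells (96-well), add compound at 5 concentrations, incubate 48 h, interpolate endpoints linearly. GI50 is the concentration that inhibits growth by half.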 Activity calls are given as the source filed them. Rule as the data show it: active = GI50 up to about 1.1 µM and inactive = higher.

Key:
Experiment in all cases: NCI-60 cell line screen, 48 h
[1] = test system: IGROV-1
[2] = test system: NCI-H23
[3] = test system: EKVX
[4] = test system: OVCAR-5
[5] = test system: NCI-H226
[6] = test system: TK-10
[7] = test system: SK-MEL-2
[8] = test system: SW-620
[9] = test system: SR
[10] = test system: OVCAR-8
[11] = test system: MOLT-4
[12] = test system: T47D
[13] = test system: NCI/ADR-RES
[14] = test system: RPMI-8226
[15] = test system: PC-3
[16] = test system: UACC-257
[17] = test system: 786-0
[18] = test system: HCC 2998
[19] = test system: CAKI-1
[20] = test system: OVCAR-4
[21] = test system: UO-31
[22] = test system: COLO 205
[23] = test system: BT-549
[24] = test system: LOX IMVI
[25] = test system: CCRF-CEM
[26] = test system: RXF 393
[27] = test system: Malme-3M
[28] = test system: SK-OV-3
[29] = test system: SK-MEL-28
[30] = test system: HL-60
[31] = test system: HCT-15
[32] = test system: UACC-62
[33] = test system: KM12
[34] = test system: A549
[35] = test system: SN12C
[36] = test system: SNB-75
[37] = test system: MDA-N
[38] = test system: NCI-H460
[39] = test system: U-251
[40] = test system: A498
[41] = test system: ACHN
[42] = test system: Hs-578T
[43] = test system: DU-145
[44] = test system: OVCAR-3
[45] = test system: MDA-MB-435
[46] = test system: SF-539
[47] = test system: MDA-MB-231
[48] = test system: MCF7
[49] = test system: M14
[50] = test system: HCT-116
[51] = test system: HT-29
[52] = test system: K562
[53] = test system: SNB-19
[54] = test system: HOP-62
[55] = test system: NCI-H522
[56] = test system: SF-295
[57] = test system: SK-MEL-5
[58] = test system: SF-268
[59] = test system: HOP-92

COc1cc(/C=C2\CC/C(=C\c3cc(OC)c(O)c(OC)c3)C2=O)cc(OC)c1O
GI50 [1]: 0.881 µM (active)
GI50 [2]: 1.98 µM (inactive)
GI50 [3]: 3.13 µM (inactive)
GI50 [4]: 6.18 µM (inactive)
GI50 [5]: 3.94 µM (inactive)
GI50 [6]: 5.32 µM (inactive)
GI50 [7]: 0.667 µM (active)
GI50 [8]: 1.88 µM (inactive)
GI50 [9]: 2.88 µM (inactive)
GI50 [10]: 3.01 µM (inactive)
GI50 [11]: 1.02 µM (active)
GI50 [12]: 2.32 µM (inactive)
GI50 [13]: 2.79 µM (inactive)
GI50 [14]: 1.04 µM (active)
GI50 [15]: 2.62 µM (inactive)
GI50 [16]: 2.03 µM (inactive)
GI50 [17]: 4.9 µM (inactive)
GI50 [18]: 1.67 µM (inactive)
GI50 [19]: 2.72 µM (inactive)
GI50 [20]: 1.69 µM (inactive)
GI50 [21]: 3.43 µM (inactive)
GI50 [22]: 17.1 µM (inactive)
GI50 [23]: 2.69 µM (inactive)
GI50 [24]: 2.29 µM (inactive)
GI50 [25]: 1.85 µM (inactive)
GI50 [26]: 1.72 µM (inactive)
GI50 [27]: 0.345 µM (active)
GI50 [28]: 3.81 µM (inactive)
GI50 [29]: 1.05 µM (active)
GI50 [30]: 1.51 µM (inactive)
GI50 [31]: 1.4 µM
GI50 [32]: 1.35 µM (inactive)
GI50 [33]: 1.48 µM (inactive)
GI50 [34]: 3.19 µM (inactive)
GI50 [35]: 8.32 µM (inactive)
GI50 [36]: 1.19 µM (inactive)
GI50 [37]: 2.27 µM (inactive)
GI50 [38]: 1.89 µM (inactive)
GI50 [39]: 2.06 µM (inactive)
GI50 [40]: 1.01 µM (active)
GI50 [41]: 2.05 µM (inactive)
GI50 [42]: 2.09 µM (inactive)
GI50 [43]: 2.21 µM (inactive)
GI50 [44]: 2.2 µM (inactive)
GI50 [45]: 1.39 µM (inactive)
GI50 [46]: 3.61 µM (inactive)
GI50 [47]: 2.14 µM (inactive)
GI50 [48]: 1.91 µM (inactive)
GI50 [49]: 2.19 µM (inactive)
GI50 [50]: 1.83 µM (inactive)
GI50 [51]: 10.4 µM (inactive)
GI50 [52]: 2.76 µM (inactive)
GI50 [53]: 3.69 µM (inactive)
GI50 [54]: 3.13 µM (inactive)
GI50 [55]: 0.798 µM (active)
GI50 [56]: 3.98 µM (inactive)
GI50 [57]: 1.95 µM (inactive)
GI50 [58]: 2.3 µM (inactive)

Cc1c2cccc-2ccc2c1[nH]c1ccccc12
GI50 [1]: 2 µM (inactive)
GI50 [2]: 2.77 µM (inactive)
GI50 [3]: 1.45 µM (inactive)
GI50 [4]: 2.12 µM (inactive)
GI50 [5]: 1.97 µM (inactive)
GI50 [6]: 2.32 µM (inactive)
GI50 [7]: 1.8 µM (inactive)
GI50 [8]: 2.36 µM (inactive)
GI50 [9]: 3.05 µM (inactive)
GI50 [10]: 2.54 µM (inactive)
GI50 [11]: 3.57 µM (inactive)
GI50 [12]: 2.54 µM (inactive)
GI50 [59]: 2.83 µM (inactive)
GI50 [13]: 3.34 µM (inactive)
GI50 [14]: 2.43 µM (inactive)
GI50 [15]: 1.76 µM (inactive)
GI50 [16]: 1.68 µM (inactive)
GI50 [17]: 2.81 µM (inactive)
GI50 [19]: 6.31 µM (inactive)
GI50 [20]: 2.23 µM (inactive)
GI50 [21]: 1.63 µM (inactive)
GI50 [22]: 1.89 µM (inactive)
GI50 [23]: 3.24 µM (inactive)
GI50 [24]: 2.55 µM (inactive)
GI50 [25]: 1.27 µM (inactive)
GI50 [26]: 3.21 µM (inactive)
GI50 [27]: 1.89 µM (inactive)
GI50 [28]: 3.23 µM (inactive)
GI50 [29]: 1.75 µM (inactive)
GI50 [30]: 3.1 µM (inactive)
GI50 [31]: 2.58 µM
GI50 [32]: 1.91 µM (inactive)
GI50 [33]: 2.34 µM (inactive)
GI50 [34]: 2.22 µM (inactive)
GI50 [35]: 2.34 µM (inactive)
GI50 [36]: 2.14 µM (inactive)
GI50 [37]: 1.97 µM (inactive)
GI50 [38]: 1.85 µM (inactive)
GI50 [39]: 1.66 µM (inactive)
GI50 [40]: 13.6 µM (inactive)
GI50 [41]: 1.77 µM (inactive)
GI50 [42]: 2.34 µM (inactive)
GI50 [43]: 4.55 µM (inactive)
GI50 [44]: 2.47 µM (inactive)
GI50 [45]: 2.27 µM (inactive)
GI50 [46]: 1.81 µM (inactive)
GI50 [47]: 1.76 µM (inactive)
GI50 [48]: 3.06 µM (inactive)
GI50 [49]: 1.73 µM (inactive)
GI50 [50]: 2.12 µM (inactive)
GI50 [51]: 3.78 µM (inactive)
GI50 [52]: 2.94 µM (inactive)
GI50 [53]: 2.7 µM (inactive)
GI50 [54]: 3.49 µM (inactive)
GI50 [55]: 1.93 µM (inactive)
GI50 [56]: 2.38 µM (inactive)
GI50 [57]: 1.79 µM (inactive)
GI50 [58]: 2.04 µM (inactive)
